Assay results from patent US20040102383A1, “Growth inhibition and eradication of solid tumors using neuroendocrine resetting therapy and photodynamic therapy” (priority 1996, published 2004).

Assays:
EMT-6 cells [1] = test: EMT-6 implanted tumor mouse model: PDT with EtNBS with or without bromocriptine and melatonin (Example 6); assay type: in vivo, Balb/c mice
Description: (§1) Adult (6-7 wk old) male Balb/c mice are subcutaneously injected with EMT-6 cells (1.7×10^6 cells) on the hind quarter and are divided into four groups (n=10 per group) and are treated as follows: group 1 receives photodynamic therapy (PDT) at 14 days after tumor inoculation. PDT consists of subcutaneously injecting a benzophenothiazine photosensitizer (EtNBS)(7.5 mg/kg of body weight) and 3 hrs later irradiating the tumor with 652 nm light at a power density of 50 mW/cm^2 and a total energy of 100 J/cm^2. Group 2 receives intraperitoneal melatonin (8 mg/kg) at 10 hours after light onset and intraperitoneal bromocriptine (50 mcg/mouse) at 0 hours after light onset starting at 7 days after tumor inoculation and continuing for 14 days. Group 3 receives both PDT (as described above) and intraperitoneal bromocriptine and intraperitoneal melatonin (as described above). Group 4 remains untreated (control). Fourteen days following PDT tumor volume is determined in all animals.

EMT-6 cells [2] = test: EMT-6 implanted tumor mouse model: PDT with EtNBS with or without melatonin (Example 5); assay type: in vivo, Balb/c mice
Description: Adult (6-7 wk old) male Balb/c mice are injected subcutaneously with EMT-6 cells (1.7×10^6 cells) on the hind quarter and are divided into four groups (n=10 per group) and are treated as follows: group 1 receives photodynamic therapy (PDT) at 14 days after tumor inoculation. PDT consists of subcutaneously injecting a benzophenothiazine photosensitizer (EtNBS)(7.5 mg/kg of body weight) and 3 hrs later irradiating the tumor with 652 nm light at a power density of 50 mW/cm^2 and a total energy of 100 J/cm^2. Group 2 receives intraperitoneal melatonin (8 mg/kg) at 10 hours after light onset starting at 7 days after tumor inoculation and continuing for 14 days. Group 3 receives both PDT (as described above) and intraperitoneal melatonin (as described above). Group 4 remains untreated (control). Fourteen days following PDT tumor volume is determined in all animals.

[3] = in vivo; cited from earlier work
EMT-6 cells [4] = test: EMT-6 implanted tumor mouse model: PDT with EtNBS with or without bromocriptine (Example 4); assay type: in vivo, Balb/c mice; conditions: PDT alone (EtNBS 7.5 mg/kg sc, 652 nm, 50 mW/cm2, 100 J/cm^2)
Description: as §1, with “mW/cm2” for “mW/cm^2”, “receives” for “receives intraperitoneal melatonin (8 mg/kg) at 10 hours after light onset and”, “bromocriptine” for “bromocriptine and intraperitoneal melatonin”

[5] = tested on: EMT-6 cells derived from a murine mammary sarcoma; test: EMT-6 implanted tumor mouse model: PDT with EtNBS with or without timed prolactin (Examples 1-2); assay type: in vivo, Balb/c mice
Description: Adult (6-7 wk old) male Balb/c mice were subcutaneously injected with EMT-6 cells derived from a murine mammary sarcoma (1.7×10^6 cells) on the hind quarter and were divided into four groups (n=10 per group) and treated as follows: Group 1 (D+L) received photodynamic therapy at 14 days after tumor inoculation. Photodynamic therapy consisted of subcutaneously injecting a benzophenothiazine photosensitizer (EtNBS, FIG. 7)(7.5 mg/kg of body weight) and 3 hrs later irradiating the tumor with 652 nm light at a power density of 150 mW/cm2 and a total energy of 100 J/cm^2. Group 2 (PRL) received intraperitoneal ovine prolactin (20 mcg/mouse) at 10 hours after light onset starting at 7 days after tumor inoculation and continuing for 14 days. Group 3 (D+L+PRL) received both PDT (as described above) and prolactin (as described above). Group 4 (CON) remained untreated (control). Fourteen days following PDT tumor volume was determined in all animals.
Example 1 was repeated with different PDT power density and energy characteristics (for groups 2 and 3) which better optimize the PDT effect. […] Under these conditions, tumor “cure” (tumor-free for at least 90 days) of 4-8 mm diameter tumors can be achieved in 70-100% of the cases largely dependent upon the tumor size at the time of PDT. However, if intraperitoneal prolactin administration (20 mcg/mouse/day at 10 hours after light onset) is added to PDT treatment (starting from the day of tumor cell inoculation), then the tumor cure rate is 100%.
The typical response observed using PDT alone with the PDT parameters employed are (in sequence): 1) an inflammation of the photoirradiated spot encompassing the tumor within about 30 minutes which increases to a maximum inflammation at about 3-5 hours; 2) inflammation completely subsides in 48-72 hours leaving noticeable tumor which takes 14 days to regress completely. Eschar formation occurs at 24-48 hours.
At 4-7 days the irradiated area has healed completely. This response cannot be obtained with PDT or prolactin alone.

body fat stores = conditions: cited from earlier work
[6] = tested on: EMT-6 cells derived from a murine mammary sarcoma; test: EMT-6 implanted tumor mouse model: PDT with Dye 4-115 with or without timed prolactin (Example 3); assay type: in vivo, Balb/c mice
Description: Adult (6-7 wk old) male Balb/c mice are subcutaneously injected with EMT-6 cells derived from a murine mammary sarcoma (1.7×10^6 cells) on the hind quarter and are divided into four groups (n=10 per group) and are treated as follows: group 1 receives photodynamic therapy (PDT) at 14 days after tumor inoculation. PDT consists of intravenously injecting a benzophenothiazine photosensitizer (Dye 4-115)(2.5 mg/kg of body weight) and 1 hr later irradiating the tumor with a broad wavelength light source (600-700 nm) at a power density of 50 mW/cm^2 and a total energy of 100 J/cm^2. Group 2 receives intraperitoneal ovine prolactin (20 mcg/mouse) at 10 hours after light onset starting at 7 days after tumor inoculation and continuing for 14 days. Group 3 receives both PDT (as described above) and prolactin (as described above). Group 4 remains untreated (control). Fourteen days following PDT tumor volume is determined in all animals.

tumor burden = test: Timed prolactin injections in tumor bearing mice; assay type: in vivo; conditions: circadian rhythms synchronized with a defined photoperiod; versus tumor bearing mice without timed prolactin injections
immune responses = conditions: timed daily administration within a specific window of time; no effect outside it; cited from earlier work
[7] = PDT alone (EtNBS 7.5 mg/kg sc, 652 nm, 50 mW/cm^2, 100 J/cm^2)
[8] = ip prolactin added to Dye 4-115 PDT
[9] = ip prolactin added to EtNBS PDT

COc1ccc2[nH]cc(CCNC(C)=O)c2c1 [melatonin]
tumor volume fourteen days following PDT (EMT-6 cells [1]; EtNBS PDT plus ip bromocriptine and ip melatonin): significantly reduced or entirely eradicated
tumor volume fourteen days following PDT (EMT-6 cells [1]; ip melatonin 8 mg/kg at 10 hours plus ip bromocriptine 50 mcg/mouse at 0 hours after light onset, no PDT): significantly reduced
tumor volume fourteen days following PDT (EMT-6 cells [2]; EtNBS PDT plus ip melatonin): significantly reduced or entirely eradicated
tumor volume fourteen days following PDT (EMT-6 cells [2]; ip melatonin alone, 8 mg/kg at 10 hours after light onset for 14 days): significantly reduced
effect on growth of tumors (EMT-6 cells [2]; mice, melatonin at the time when melatonin levels are peaking in healthy mice): potent inhibitory effect on growth of tumors

hematoporphyrin [HPD]
dermal photosensitization due to prolonged retention in the skin [3]: can persist for months

CCNc1cc2sc3cc(=[N+](CC)CC)ccc-3nc2c2ccccc12.[Cl-] [EtNBS]
tumor volume fourteen days following PDT (EMT-6 cells [1]; [7]): significantly reduced
tumor volume fourteen days following PDT (EMT-6 cells [2]; [7]): significantly reduced
tumor volume fourteen days following PDT (EMT-6 cells [4]): significantly reduced
tumor "cure" (tumor-free for at least 90 days) ([5]; PDT alone (EtNBS 7.5 mg/kg sc, 652 nm, 50 mW/cm^2, 180 J), 4-8 mm diameter tumors): 70-100%
onset of inflammation of the photoirradiated spot ([5]; PDT alone (EtNBS)): ≤ 30 min
time for noticeable tumor to regress completely ([5]; PDT alone (EtNBS)): 14 days
time of eschar formation ([5]; PDT alone (EtNBS)): 24 to 48 h
time of maximum inflammation ([5]; PDT alone (EtNBS)): 3 to 5 h
time until inflammation completely subsides ([5]; PDT alone (EtNBS)): 48 to 72 h

B1: prolactin: hormone; prolactin enhancer, given as intraperitoneal ovine prolactin (protein, UniProt P01240 31-229, looked up)
Prolactin: TPVCPNGPGNCQVSLRDLFDRAVMVSHYIHNLSSEMFNEFDKRYAQGKGFITMALNSCHTSSLPTPEDKEQAQQTHHEVLMSLILGLLRSWNDPLYHLVTEVRGMKGVPDAILSRAIEIEEENKRLLEGMEMIFGQVIPGAKETEPYPVWSGLPSLQTKDEDARHSAFYNLLHCLRRDSSKIDTYLKLLNCRIIYNNNC
increase in body fat levels (body fat stores; prolactin injections at midday of a 16-hour daily photoperiod): 3 fold
reduction of fat stores (body fat stores; prolactin injections given early in the photoperiod): 50%
treated animals exhibiting severe eschar formation ([6]; ip ovine prolactin 20 mcg/mouse at 10 hours after light onset added to Dye 4-115 PDT): 100%
time at which the irradiated area will heal completely [6, 8]: 4 to 7 days
time to complete tumor eradication [6, 8]: ≤ 24 h
time to severe eschar formation [6, 8]: ≤ 24 h
tumor burden (tumor burden): decreased tumor burden
effect on immune function (immune responses): immunostimulatory effect
tumor cure rate ([5]; ip prolactin 20 mcg/mouse/day at 10 hours after light onset from day of inoculation, added to EtNBS PDT (50 mW/cm^2, 180 J)): 100%
time at which the irradiated area has healed completely [5, 9]: 4 to 7 days
time to complete tumor eradication [5, 9]: ≤ 24 h
time to severe eschar formation [5, 9]: ≤ 24 h
treated animals exhibiting severe eschar formation [5, 9]: 100%
tumor cure rate ([5]; mouse models, prolactin at the appropriate time interval combined with PDT): ~100%
